pEC50: −log10 of the molar value. The source made the active and inactive calls. No cut-off for these calls is given here.
Key:
MV4-11 = assay: Antiproliferative activity against human MV4-11 cells assessed as inhibition of cell growth; format: functional, cell-based
RS4-11 = assay: Antiproliferative activity against human RS4-11 cells assessed as inhibition of cell growth; format: functional, cell-based
[1] = Cmax in BALB/c mouse at 40 mg/kg administered as single dose; format: ADME, organism-based; details: in vivo, route po
KARPAS-422 [2] = assay: Antitumor activity against human KARPAS-422 cells xenografted in FOX CHASE SCID C.B.17/Icr-scid/scid Jc1 mouse assessed as inhibition of tumor growth at 160 mg/kg, po BID for 16 days; format: functional, organism-based; details: time 16.0 day
KARPAS-422 [3] = assay: Antitumor activity against human KARPAS-422 cells xenografted in FOX CHASE SCID C.B.17/Icr-scid/scid Jc1 mouse assessed as inhibition of tumor growth administered orally BID for 16 days; format: functional; details: dose lower 40.0 mg/kg, dose upper […], route po, time 16.0 day
Mus musculus = assay: In vivo inhibition of EZH1/2 in FOX CHASE SCID C.B.17/Icr-scid/scid Jc1 mouse xenografted with human KARPAS-422 cells assessed as decrease in H3K27me3 level in tumor at 40 to 160 mg/kg, po BID for 16 days and measured 1 day after cessation of drug dosing; format: functional, organism-based; details: dose lower 40.0 mg/kg, dose upper […], time 16.0 day
[4] = AUC (0 to 24 hrs) in BALB/c mouse at 40 mg/kg administered as single dose; format: ADME, organism-based; details: in vivo, route po
NCI-N87 [5] = assay: Antitumor activity against human NCI-N87 cells xenografted in female CAnN.Cg-Foxn1nu/CrlCrljFoxn1nu/Foxn1nu mouse assessed as tumor regression at 50 mg/kg, po qd for 28 days; format: functional, organism-based; details: time 28.0 day
NCI-N87 [6] = assay: Antitumor activity against human NCI-N87 cells xenografted in female CAnN.Cg-Foxn1nu/CrlCrljFoxn1nu/Foxn1nu mouse assessed as tumor regression at 50 mg/kg, po qd for 28 days and measured for 40 days after drug dosing cessation; format: functional, organism-based; details: time 28.0 day
G-401 = assay: Antitumor activity against human G-401 cells xenografted in female CAnN.Cg-Foxn1nu/CrlCrljFoxn1nu/Foxn1nu mouse assessed as suppression of tumor growth at 50 mg/kg, po qd for 12 days; format: functional, organism-based; details: time 12.0 day

With `CCCc1cc(C)[nH]c(=O)c1CNC(=O)c1cc(-c2ccc(N3CCN(C(C)C)CC3)nc2)cc2c1cnn2C(C)C` as the compound, how does the pEC50 (MV4-11) read?
Its pEC50 is 6.28.

And the pEC50 (RS4-11)?
Its pEC50 is 5.71.

Which Cmax [1] does the source give for `CCN1CCN(c2ccc(-c3cc(C(=O)NCc4c(C)cc(C)[nH]c4=O)c(C)c4c3O[C@](C)(CN3CCOCC3)O4)cn2)CC1` here?
Its Cmax is 6 µM.

What about the Activity (KARPAS-422 [2]) of the same compound?
The Activity was “Active”.

And the Activity (KARPAS-422 [3])?
Its Activity is “Dose-Dependent Effect”.

And the inhibition (Mus musculus)?
The inhibition was “Active”.

And the AUC(0-t) [4]?
Its AUC(0-t) is 45 µM·h.

With `Cc1cc(C)c(CNC(=O)c2cc(Br)c3c(c2C)OC(C)(C2CCC(N(C)C)CC2)O3)c(=O)[nH]1` (stereo not given) as the compound, how does the Activity (NCI-N87 [5]) read?
The Activity was “inactive”.

And the Activity (NCI-N87 [6])?
The Activity was “Active”.

And the Activity (G-401)?
The Activity was “Active”.

From ChEMBL document CHEMBL5647694, “Novel orally bioavailable EZH1/2 dual inhibitors with greater antitumor efficacy than an EZH2 selective inhibitor” (Cancer Sci, 2017)
